Data set [1] in a line: Elution of latanoprost from silicone drug cores with excipients in PBS (FIGS. 9-12). Format: physicochemical. Conditions: 37° C., 100 cpm, 10% glycerol, 5% PEG400, 7.3 wt % DMPC or EPG in Formulations 1 and 2. The procedure:
The silicone formulation (MED6385) is a two part system. Part A contains the silicone and crosslinker while Part B contains the tin catalyst to promote crosslinking. The two parts are combined in a final ratio of 200:1 (Part A: Part B). The required amounts of Latanoprost, the selected excipient (DMPC or EPG), the crosslinker, MED6385 Part A and B are weighed onto a glass slide and mixed for approximately 2 minutes using a plastic mini spatula. Quantities used in the preparation of specific examples are shown below.
After the silicone/latanoprost mixing is complete, the mixture is loaded in the barrel of the syringe extrusion system. The plunger is inserted and excess air is removed. The syringe is then loaded into the extrusion apparatus.
After setup, the extrusion system activated and a silicone latanoprost mixture is extruded down the length of the polyimide tubing. Once the mixture reaches the bottom of the tubing, the tubing is cut using a razor blade and clamped on both ends.
The clamped section of tubing is placed in a humidity chamber to be cured.
Samples, including those shown in FIGS. 9-12, were analyzed for elution by immersion in a PBS (phosphate buffered saline) elution medium. Temperature was maintained at 37° C. with 100 cpm shaking. The elution medium was changed daily (except weekends) for the first two weeks and weekly thereafter. Elution media samples were analyzed by reversed-phase chromatography. Samples were prepared for HPLC analysis by adding 200 μL of internal standard solution (2.4 μg/mL of butylated hydroxyanisole in isopropanol) and vortexing to mix. The amount of latanoprost eluted was determined using a reversed phase HPLC UV detection using a Waters SunFire C18, 3.5 μm, 3.0×100 mm column and detection conditions of the following: 1.0 mL/min flow rate, 200 μL injection volume, 210 nm detection wavelength, using gradient of solvents over a run time of 6 minutes (time zero=63% mobile phase A, 37% mobile phase B, time 4.9 minutes=35% A, 65% B, time 5 minutes=63% A, 37% B) comprising 0.1% Phosphoric Acid in Water (mobile Phase A) and ACN (mobile phase B), 50° C. column temperature set point.

The conditions of data set [2]: after topical administration; studies in man; cited from earlier work.
For data set [3] the following is noted: cited from earlier work.
A further data set concerns subjects. Conditions: clinical trials, cited from earlier work.

The structures appear in SMILES notation.

With `CCCCCCCCCCCCCC(=O)OC[C@H](COP(=O)([O-])OCC[N+](C)(C)C)OC(=O)CCCCCCCCCCCCC` [DMPC, dimyristoyl phosphatidylcholine], the “release (elution) rate of latanoprost from silicone matrix with excipient relative to no excipient” value in data set [1] is recorded as “increased elution rate”.

Regarding `CCCCCCCCCCCCCC(=O)OCC(COP(=O)(O)OCC(O)CO)OC(=O)CCCCCCCCCCCCC` (stereo not drawn) [DMPG, dimyristoyl phosphatidylglycerol], in data set [1], the “release (elution) rate of latanoprost from silicone matrix with excipient relative to no excipient” value is recorded as “increased elution rate”.

In the case of `CCCCCCCCCCCCCCCCCC(=O)OC[C@H](COP(=O)([O-])OCC[N+](C)(C)C)OC(=O)CCCCCCCCCCCCCCCCC` [DSPC, distearoyl phosphatidylcholine], in data set [1], the “release (elution) rate of latanoprost from silicone matrix with excipient relative to no excipient” value is “decreased elution rate”.

Consider `CCCCCCCCCCCCCCCC(=O)OCC(COP(=O)(O)OCCN)OC(=O)CCCCCCCCCCCCCCC` (stereo not drawn) [DPPE, dipalmitoyl phosphatidylethanolamine], for which the “release (elution) rate of latanoprost from silicone matrix with excipient relative to no excipient” value in data set [1] was “decreased elution rate”.

As to `CCCCCCCC/C=C\CCCCCCCC(=O)O[C@H](COC(=O)CCCCCCCCCCCCCCC)COP(=O)(O)OCC(O)CO` (stereo partly drawn) [POPG, palmitoyl oleoyl phosphatidylglycerol], the “release (elution) rate of latanoprost from silicone matrix with excipient relative to no excipient” value in data set [1] was “increased elution rate”.

Consider `CCCCCCCCCCCCCCCC(=O)OC[C@H](COP(=O)([O-])OCC[N+](C)(C)C)OC(=O)CCCCCCCCCCCCCCC` [DPPC, dipalmitoyl phosphatidylcholine], for which the “release (elution) rate of latanoprost from silicone matrix with excipient relative to no excipient” value in data set [1] is “decreased elution rate”.

Turning to `CCCCCCCCCCCCCCCCCC(=O)O[C@H](COC(=O)CCCCCCCCCCCCCCC)COP(=O)([O-])OCC[N+](C)(C)C` [PSPC, palmitoyl stearoyl phosphatidylcholine], the “release (elution) rate of latanoprost from silicone matrix with excipient relative to no excipient” value in data set [1] is “decreased elution rate”.

On to `CC(C)OC(=O)CCC/C=C\C[C@@H]1[C@@H](CC[C@@H](O)CCc2ccccc2)[C@H](O)C[C@@H]1O` [latanoprost, isopropyl-(Z)-7[(1R,2R,3R,5S)3,5-dihydroxy-2-[(3R)-3-hydroxy-5-phenylpentyl]cyclopentyl]-5-heptenoate], for which, in data set [2], the “time to peak concentration in the aqueous humor” value was “about two”. Moreover, in data set [3], the “solubility in acetone, ethanol, ethyl acetate, isopropanol, methanol and octanol” value was “freely soluble”; the solubility in acetonitrile entry was “very soluble”; the “solubility in water” value is recorded as “practically insoluble in water”. Moreover, in data set [3] (in water at 25 degrees C.), the aqueous solubility is given as 50 micrograms/mL and the “aqueous solubility, by weight” value is reported as “about 0.005 % by weight”. In the data set with subjects (Xalatan product information), the “conjunctivitis, diplopia, discharge from the eye, subjects” value was “Less than 1%”; the “retinal artery embolus, retinal detachment, vitreous hemorrhage from diabetic retinopathy” value is reported as “rarely reported”; the “subjects requiring discontinuation of therapy because of intolerance to conjunctival hyperemia” value was “Less than 1%”. Moreover, the “systemic adverse events: upper respiratory tract infection/cold/flu, rate” value in the data set with subjects is “approximately 4%”.

Take `OCC(O)CO` [glycerol]: the “release (elution) rate of latanoprost from silicone matrix with excipient relative to no excipient” value in data set [1] is recorded as “rate is increased relative to control”.

Source of the values: patent US20150064230A1, “SUSTAINED RELEASE DELIVERY OF ONE OR MORE AGENTS” (Mati Therapeutics Inc., priority 2009, published 2015).
